Laboratory results as given in paper PMC7032066 (Insect biochemistry and molecular biology, 2019).
Starred links: 1 amine or outer side, 2 acyl side, 3 side chain; linkers in the order of their positions; H or OH if unused. Non-standard residues stand in square brackets, D forms with d. Residues, ends and D or L forms follow the SMILES beside them. Mur = C[C@@H](O[C@H]1[C@H](O)[C@@H](CO)OC(O)[C@@H]1N[*:1])C(=O)[*:2]; d(isoGln) = NC(=O)[C@@H](CCC(=O)[*:2])N[*:1]

Biological target: T1, M. sexta PGRP1 (Manduca sexta, UniProt Q86RS6)
T1 sequence (Q86RS6 20-191): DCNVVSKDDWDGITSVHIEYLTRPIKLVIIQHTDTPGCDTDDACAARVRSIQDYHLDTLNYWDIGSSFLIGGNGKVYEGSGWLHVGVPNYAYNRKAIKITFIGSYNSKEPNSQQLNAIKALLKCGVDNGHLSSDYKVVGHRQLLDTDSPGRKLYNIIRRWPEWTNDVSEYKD
Test: SPR
Type: binding
Settings: HBS-EP pH 7.4 (10 mM HEPES, 150 mM NaCl, 3 mM EDTA, 0.005% polysorbate 20), 25°C

Kd: 45.6 µM
Structure (SMILES): CC(=O)N[C@H]1C(O)O[C@H](CO)[C@@H](O)[C@@H]1O[C@H](C)C(=O)N[C@@H](C)C(=O)N[C@H](CCC(=O)N[C@@H](CCCCN)C(=O)N[C@H](C)C(=O)N[C@H](C)C(N)=O)C(N)=O (stereo partly shown) [Lys-MPP] (Ac-[Mur]A[d(isoGln)]K[dA][dA]-NH2)
